Measurements taken from PMC8916643, “Molecular physiology of pumiliotoxin sequestration in a poison frog” (PLoS ONE, 2022).

Legend:
Assay in all cases: CiPA cell-based QPatch ion channel inhibition
Conditions in all cases: maximum concentration of 30 uM
hERG = target: T1, hERG (Homo sapiens, UniProt Q12809)
T1 construct: Eurofins Discovery Services (Eurofins Panlabs Inc) ran the assay
Procedure: (§1) Assays for human CYP activity (CYP phenotyping), CYP2D6 metabolite discovery (metID), ion channel inhibition (CiPA), and G-protein coupled receptor (GPCR) activity (gpcrMAX) were performed through Eurofins Discovery Services (Eurofins Panlabs Inc, St. Charles MO, USA). In the CYP phenotyping panel, human recombinant CYP1A2, CYP2B6, CYP2C8, CYP2C9, CYP2C19, CYP2D6, and CYP3A4 were included in the assay. A concentration of 1E-07 M of PTX 251D was tested, and the percent compound remaining was quantified at 0, 15, 30, 45, and 60 minutes using HPLC-MS/MS. As a positive control, a reference compound was used for each CYP tested (see S1 File for results). In the CYP2D6 metabolism assay, human recombinant CYP2D6 was incubated with an initial concentration of 10 μM and metabolites were quantified after 90 minutes using LC-MS/MS. Two replicates were used for the CYP phenotyping panel and one replicate was used for CYP2D6 metabolite assay. The CiPA assay was a cell-based QPatch on voltage-gated sodium channel NaV1.5 (peak and late/agonist), voltage-gated potassium channels Kv4.3/KChIP2, hERG, KCNQ1/minK, Kir2.1, and voltage-gated calcium channel Cav1.2. The concentrations of PTX 251D assayed were 3, 10, and 30 μM, and a reference compound for each channel was used (see S1 File for results and individual QPatch parameters). In the gpcrMAX assay a panel of 165 GPCRs was tested through the DiscoverX PathHunter beta-arrestin enzyme fragment complementation technology, and a concentration of 10 μM PTX 251D was tested for both agonist and antagonist activity along with a reference compound for each GPCR (see S1 File for results).

Kv4.3/KChIP2 = target: T2, Kv4.3/KChIP2 (Homo sapiens, UniProt Q9UK17)
T2 construct: Eurofins Discovery Services (Eurofins Panlabs Inc) ran the assay
T2 sequence (Q9UK17 1-655): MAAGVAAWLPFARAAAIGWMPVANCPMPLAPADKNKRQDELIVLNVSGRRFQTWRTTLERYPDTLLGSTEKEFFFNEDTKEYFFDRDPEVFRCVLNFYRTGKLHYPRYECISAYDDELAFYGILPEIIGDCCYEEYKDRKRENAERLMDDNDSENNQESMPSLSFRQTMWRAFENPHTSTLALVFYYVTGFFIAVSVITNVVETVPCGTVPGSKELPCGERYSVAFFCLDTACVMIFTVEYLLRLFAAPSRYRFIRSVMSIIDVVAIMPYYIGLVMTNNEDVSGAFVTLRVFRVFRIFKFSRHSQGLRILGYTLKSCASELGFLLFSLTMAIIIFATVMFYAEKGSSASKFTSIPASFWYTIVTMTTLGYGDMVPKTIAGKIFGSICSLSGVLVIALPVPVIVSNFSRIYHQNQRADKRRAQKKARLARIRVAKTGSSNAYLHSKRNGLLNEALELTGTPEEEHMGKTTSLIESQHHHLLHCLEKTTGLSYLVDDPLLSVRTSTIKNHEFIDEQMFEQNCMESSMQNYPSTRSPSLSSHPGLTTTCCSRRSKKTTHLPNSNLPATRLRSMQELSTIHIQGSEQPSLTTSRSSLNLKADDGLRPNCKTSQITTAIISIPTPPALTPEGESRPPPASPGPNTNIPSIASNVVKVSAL
T2 sequence (Q9NS61 1-270 partner): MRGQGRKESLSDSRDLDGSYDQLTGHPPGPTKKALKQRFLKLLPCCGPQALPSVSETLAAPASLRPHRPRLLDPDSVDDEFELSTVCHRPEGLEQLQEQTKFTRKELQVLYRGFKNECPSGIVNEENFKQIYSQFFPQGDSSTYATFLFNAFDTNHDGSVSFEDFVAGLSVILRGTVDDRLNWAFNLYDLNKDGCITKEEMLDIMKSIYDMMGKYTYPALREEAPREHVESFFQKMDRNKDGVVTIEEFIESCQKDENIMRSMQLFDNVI
Procedure: as §1

KCNQ1/minK = target: T3, KCNQ1/minK (Homo sapiens, UniProt P51787)
T3 construct: Eurofins Discovery Services (Eurofins Panlabs Inc) ran the assay
T3 sequence (P51787 whole entry): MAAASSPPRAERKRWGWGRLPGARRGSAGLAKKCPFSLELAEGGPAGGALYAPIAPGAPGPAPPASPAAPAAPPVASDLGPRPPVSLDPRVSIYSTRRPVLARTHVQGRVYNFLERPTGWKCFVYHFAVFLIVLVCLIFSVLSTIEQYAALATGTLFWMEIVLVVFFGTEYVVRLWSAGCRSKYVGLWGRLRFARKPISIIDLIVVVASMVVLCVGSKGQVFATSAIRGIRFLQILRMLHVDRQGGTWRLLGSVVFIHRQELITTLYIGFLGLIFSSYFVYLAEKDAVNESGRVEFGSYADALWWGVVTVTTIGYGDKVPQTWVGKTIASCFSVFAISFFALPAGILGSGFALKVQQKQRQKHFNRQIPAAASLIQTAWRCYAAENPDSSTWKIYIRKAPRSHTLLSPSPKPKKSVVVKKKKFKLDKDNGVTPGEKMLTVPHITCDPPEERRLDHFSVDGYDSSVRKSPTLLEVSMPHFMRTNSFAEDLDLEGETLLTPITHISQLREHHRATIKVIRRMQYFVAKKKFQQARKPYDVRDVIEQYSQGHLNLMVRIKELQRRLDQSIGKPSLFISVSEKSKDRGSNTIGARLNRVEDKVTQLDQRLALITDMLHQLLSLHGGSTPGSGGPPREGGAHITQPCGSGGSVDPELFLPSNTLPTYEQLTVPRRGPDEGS
Procedure: as §1

T1 sequence (Q12809 whole entry): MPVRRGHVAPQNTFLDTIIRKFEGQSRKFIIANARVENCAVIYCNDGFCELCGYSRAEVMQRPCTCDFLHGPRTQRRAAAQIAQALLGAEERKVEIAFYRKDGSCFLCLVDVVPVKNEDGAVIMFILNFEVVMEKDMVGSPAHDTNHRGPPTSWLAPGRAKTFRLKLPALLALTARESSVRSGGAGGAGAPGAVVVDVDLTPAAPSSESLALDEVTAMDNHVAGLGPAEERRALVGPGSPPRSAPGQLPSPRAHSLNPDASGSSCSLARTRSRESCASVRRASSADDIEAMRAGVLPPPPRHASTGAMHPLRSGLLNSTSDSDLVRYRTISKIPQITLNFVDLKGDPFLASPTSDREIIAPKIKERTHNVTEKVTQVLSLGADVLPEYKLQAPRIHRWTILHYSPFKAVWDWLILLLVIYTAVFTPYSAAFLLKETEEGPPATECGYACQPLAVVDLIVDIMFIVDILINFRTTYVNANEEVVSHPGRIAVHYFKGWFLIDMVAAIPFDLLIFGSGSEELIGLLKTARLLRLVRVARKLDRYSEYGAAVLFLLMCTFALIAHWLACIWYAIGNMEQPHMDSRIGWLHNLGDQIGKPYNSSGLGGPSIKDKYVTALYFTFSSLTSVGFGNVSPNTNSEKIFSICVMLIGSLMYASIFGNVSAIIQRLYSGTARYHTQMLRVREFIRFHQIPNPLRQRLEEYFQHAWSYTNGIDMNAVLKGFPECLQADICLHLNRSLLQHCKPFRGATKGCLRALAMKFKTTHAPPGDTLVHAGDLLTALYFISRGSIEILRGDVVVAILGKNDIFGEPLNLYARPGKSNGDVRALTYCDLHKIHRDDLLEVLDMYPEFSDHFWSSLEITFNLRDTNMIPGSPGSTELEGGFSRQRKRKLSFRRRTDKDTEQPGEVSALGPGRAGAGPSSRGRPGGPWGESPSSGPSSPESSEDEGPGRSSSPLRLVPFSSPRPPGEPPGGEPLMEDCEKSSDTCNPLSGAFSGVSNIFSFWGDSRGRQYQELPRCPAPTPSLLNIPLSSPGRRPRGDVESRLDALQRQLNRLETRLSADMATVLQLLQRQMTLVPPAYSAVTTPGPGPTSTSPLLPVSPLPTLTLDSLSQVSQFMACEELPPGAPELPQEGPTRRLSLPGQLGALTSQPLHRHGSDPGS

CCCCC(C)C=C1CN2CCCC2C(C)(O)C1 (stereo not drawn) [PTX 251D, pumiliotoxin (PTX 251D)]
no inhibitory effect: inhibitory effect on hERG (hERG) | inhibitory effect on Kv4.3/KChIP2 (Kv4.3/KChIP2) | inhibitory effect on KCNQ1/minK (KCNQ1/minK)
